Measured values: patent publication US20220323402A1, “TREATMENT, AMELIORATION OR PREVENTION OF A VIRAL INFECTION” (priority 2019, published 2022)

Tests used:
[1] = test system: DENV-1, DENV-2, DENV-3, DENV-4; assay: DENV plaque assay of supernatants of A549 cells; type: cell-based, dengue virus; settings: A549 pre-treated, moi=0.1, 24 h p.i.; FIGS. 63A-63D
Procedure: FIG. 62: AHR activation boosts DENV replication. A549 cells were pretreated with the indicated concentrations of I3S for 24 h and infected with DENV-2 (moi=0.1). 48 h p.i. supernatants were harvested for plaque assay.
FIGS. 63A-63D: AHR modulation affects DENV replication. Infectious virus particles in the supernatants of A549 cells pre-treated with CH2213191 and infected with DENV-1 (FIG. 63A), DENV-2 (FIG. 63B), DENV-3 (FIG. 63C) or DENV-4 (FIG. 63D) (moi=0.1). At 24 h p.i. supernatants were harvested for plaque assay.

ZIKV = assay: qPCR of ZIKV RNA in HepG2 cells treated before, during or after infection (viral entry step); type: cell-based, Zika virus; settings: HepG2, moi=3, pretreatment, adsorption or internalization, qPCR 2 hours after infection; FIG. 17
Procedure: FIG. 17: Q-PCR quantification of ZIKV RNA in HepG2 cells treated with CH223191 or DMSO (vehicle) before infection, during infection, or after the infection with ZIKV (moi=3). 2 h p.i., cells were harvested for RNA extraction and qPCR analysis to determine the level of ZIKV RNA. Data represent the mean+s.e.m. from three independent experiments. P values were determined by Student's t-test.
To investigate whether AHR inhibition interferes with the viral entry step, we treated HepG2 cells with CH223191 at different early time points of ZIKV infection (pretreatment before viral entry, during viral adsorption and during virus internalization) and quantified ZIKV by qPCR 2 hours after infection. We detected no effect of CH223191 at these early timepoints during ZIKV infection as determined by qPCR, showing that AHR contributes to later stages of ZIKV replication (FIG. 17).
RNA was extracted using the RNAeasy kit (Qiagen). cDNA was synthesized using the High-Capacity cDNA Reverse Transcription kit (Applied Biosystems) and qPCR was performed using TaqMan Fast Advanced Master Mix (Applied Biosystems). Gene expression was normalized to GAPDH. […] RNA pellets were resuspended in RNase-free water and quantified by spectrophotometry (NanoDrop—Thermo Scientific) and stored at −80° C. […] Quantification was compared with threshold cycle (Ct) value with a ZIKV plasmid standard curve.

DENV-2 = assay: DENV viral RNA (qPCR) and viral protein (immunofluorescence) in A549 cells; type: cell-based, dengue virus; settings: FIGS. 64A-64B and 65A-65C
Text: FIGS. 64A and 64B: A549 cells positive for Flavivirus antigen determined by immunofluorescence. Cells infected with DENV-2 from FIG. 63C were fixed, stained against Flavivirus envelope protein and visualized under a fluorescence microscope (FIG. 64A). Images of random fields of view were acquired and the number of cells positive for Flavivirus antigen was counted using FIJI (FIG. 64B).
FIGS. 65A-65C: RNA expression of DENV-2 (FIG. 65A), AHR (FIG. 65B) and CYP1A1 (FIG. 65C) determined by qPCR. A549 cells were infected with DENV-2 (moi=0.1) and 48 h p.i. they were harvested for qPCR analysis.

Cc1ccccc1/N=N/c1ccc(NC(=O)c2ccnn2C)c(C)c1 [CH223191, 2-Methyl-2H-pyrazole-3-carboxylic Acid (2-methyl-4-o-tolylazo-phenyl)-amide]
replication of the four DENV serotypes [1]: reduced
effect on ZIKV RNA at early timepoints of infection (ZIKV): no effect
DENV viral RNA and viral protein expression levels (DENV-2): inhibition
